What follows are compounds tested against T1, rat B1R (bradykinin receptor 1) (Rattus norvegicus, UniProt P97583) (assay: FLIPR Ca2+ assay (Fluo-4) on CHO K1 cells stably transfected with the B1R gene of the rat (rB1R cells): % inhibition at 10 μM / IC50, agonist Des-Arg9-bradykinin). Details: CHO-K1, rat B1R.
T1 construct: expressed in transfected cells; host or cells: CHO K1 cells
T1 sequence (P97583 1-337): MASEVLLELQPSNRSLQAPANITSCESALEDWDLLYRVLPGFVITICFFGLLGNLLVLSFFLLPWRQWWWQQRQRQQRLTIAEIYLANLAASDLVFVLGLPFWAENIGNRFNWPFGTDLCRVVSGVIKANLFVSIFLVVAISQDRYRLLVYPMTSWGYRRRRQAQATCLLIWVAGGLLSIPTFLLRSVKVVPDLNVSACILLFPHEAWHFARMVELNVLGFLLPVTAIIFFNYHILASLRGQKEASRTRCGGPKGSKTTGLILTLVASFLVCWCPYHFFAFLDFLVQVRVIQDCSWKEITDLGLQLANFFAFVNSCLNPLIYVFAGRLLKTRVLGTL
Format: cell-based
Protocol: The agonistic or antagonistic action of substances can be quantified on the bradykinin receptor 1 (B1R) of the human and rat species with ectopically expressing cell lines (CHO K1 cells) and with the aid of a Ca^2+-sensitive dyestuff (Fluo-4) in a fluorescent imaging plate reader (FLIPR). The figure in % activation is based on the Ca^2+ signal after addition of Lys-Des-Arg^9-bradykinin (0.5 nM) or Des-Arg^9-bradykinin (100 nM). Antagonists lead to a suppression of the Ca^2+ inflow after addition of the agonist. % inhibition compared with the maximum achievable inhibition is stated.
The agonistic or antagonistic action of substances can be determined on the bradykinin receptor 1 (B1R) of the human and rat species with the following assay. In accordance with this assay, the Ca^2+ inflow through the channel is quantified with the aid of a Ca^2+-sensitive dyestuff (type Fluo-4, Molecular Probes Europe BV, Leiden, Holland) in a fluorescent imaging plate reader (FLIPR, Molecular Devices, Sunnyvale, USA).
Chinese hamster ovary cells (CHO K1 cells) transfected stably with the human B1R gene (hB1R cells) or the B1R gene of the rat (rB1R cells) are used. For functional studies, these cells are plated out on black 96-well plates with a clear base (BD Biosciences, Heidelberg, Germany or Greiner, Frickenhausen, Germany) in a density of 20,000-35,000 cells/well. The cells are left overnight at 37° C. and 5% CO2 in culture medium (hB1R cells: Nutrient Mixture Ham's F12, Gibco Invitrogen GmbH, Karlsruhe, Germany or DMEM, Sigma-Aldrich, Taufkirchen, Germany; rB1R cells: D-MEM/F12, Gibco Invitrogen GmbH, Karlsruhe, Germany) with 10 vol. % FBS (foetal bovine serum, Gibco Invitrogen GmbH, Karlsruhe, Germany or PAN Biotech GmbH, Aidenbach, Germany). On the following day, the cells are loaded for 60 min at 37° C. with 2.13 μM Fluo-4 (Molecular Probes Europe BV, Leiden Holland) in HBSS buffer (Hank's buffered saline solution, Gibco Invitrogen GmbH, Karlsruhe, Germany) with 2.5 mM probenecid (Sigma-Aldrich, Taufkirchen, Germany) and 10 mM HEPES (Sigma-Aldrich, Taufkirchen, Germany). The plates are then washed 2× with HBSS buffer, and HBSS buffer which additionally contains 0.1% BSA (bovine serum albumin; Sigma-Aldrich, Taufkirchen, Germany), 5.6 mM glucose and 0.05% gelatine (Merck KGaA, Darmstadt, Germany) is added. After a further incubation of 20 minutes at room temperature, the plates are inserted into the FLIPR for the Ca^2+ measurement. Alternatively, the plates are washed with buffer A (15 mM HEPES, 80 mM NaCl, 5 mM KCl, 1.2 mM CaCl2, 0.7 mM MgSO4, 2 g/l glucose, 2.5 mM probenecid), buffer A is added and the plates are loaded with 2.5 μM Fluo-4 and 0.025% Pluronic F127 (Sigma-Aldrich, Taufkirchen, Germany). Thereafter, the cells are washed 2× with buffer A and incubated for 30 minutes at room temperature with buffer A, which additionally contains 0.05% BSA and 0.05% gelatine, and thereafter inserted into the FLIPR for the Ca^2+ measurement. The Ca^2+-dependent fluorescence is measured here before and after addition of substances (λex=488 nm, λem=540 nm). Quantification is by measurement of the highest fluorescence intensity (FC, fluorescence counts) over time.
The FLIPR protocol consists of 2 additions of substance. Test substances (10 μM) are first pipetted on to the cells and the Ca^2+ inflow is compared with the control (hB1R: Lys-Des-Arg^9-bradykinin>=50 nM; rB1R: Des-Arg^9-bradykinin 10 μM). This gives the result in % activation based on the Ca^2+ signal after addition of Lys-Des-Arg^9-bradykinin (>=50 nM) or Des-Arg^9-bradykinin (10 μM). After incubation for 10-20 minutes, Lys-Des-Arg^9-bradykinin (hB1R) or Des-Arg^9-bradykinin (rB1R) in the concentration of the EC80 is applied and the inflow of Ca^2+ is likewise determined. Antagonists lead to a suppression of the Ca^2+ inflow. % inhibition compared with the maximum achievable inhibition is calculated.
For determination of the IC50 value, the substances are added in various concentrations. […]
Work on `O=C(NC1CCc2ccc(C(=O)N3CCC4(CCN(Cc5c[nH]cn5)CC4)CC3)cc21)c1ccccc1Cl` (stereo not shown) [IND_CC-508, 2-Chloro-N-[6-[9-(1H-imidazol-4-yl-methyl)-3,9-diazaspiro[5.5]undecane-3-carbonyl]-2,3-dihydro-1H-inden-1-yl]-benzamide] yielded an inhibition at 10 µM of 100%. Work on `Cc1cc(OC(F)(F)F)ccc1C(=O)NC1CCc2ccc(C(=O)N3CCC4(CC3)CCN(c3ccncc3)CC4)cc21` (stereo not shown) [IND_CC-300, 2-Methyl-N-[6-(9-pyridin-4-yl-3,9-diazaspiro[5.5]undecane-3-carbonyl)-2,3-dihydro-1H-inden-1-yl]-4-(trifluoromethyloxy)-benzamide] yielded an inhibition at 10 µM of 65%. `Cc1cccc(C(=O)N(C)C2CCc3ccc(C(=O)N4CCC5(CC4)CCN(c4ccncc4)CC5)cc32)c1C` (stereo not shown) [IND_CC-387, N,2,3-Trimethyl-N-[6-(9-pyridin-4-yl-3,9-diazaspiro[5.5]undecane-3-carbonyl)-2,3-dihydro-1H-inden-1-yl]-benzamide] showed an inhibition at 10 µM of 104%. With `O=C(NC1CCc2ccc(C(=O)N3CCC4(CCN(CCCc5cccc(F)c5)CC4)C3)cc21)c1cccc(Cl)c1Cl` (stereo not shown) [IND_CC-750, 2,3-Dichloro-N-[6-[8-[3-(3-fluorophenyl)-propyl]-2,8-diazaspiro[4.5]decane-2-carbonyl]-2,3-dihydro-1H-inden-1-yl]-benzamide] the inhibition at 10 µM was 99%. `COc1ccc(C(=O)NC2CCc3ccc(C(=O)N4CCC5(CC4)CCN(c4ccc(C(F)(F)F)cc4)CC5)cc32)c(Cl)c1` (stereo not shown) [IND_CC-213, 2-Chloro-4-methoxy-N-[6-[9-[4-(trifluoromethyl)-phenyl]-3,9-diazaspiro[5.5]undecane-3-carbonyl]-2,3-dihydro-1H-inden-1-yl]-benzamide] gave an inhibition at 10 µM of 73%. For `Cn1cccc1CN1CCC2(CC1)CCN(C(=O)c1ccc3c(c1)C(N(C(=O)c1ccccc1Cl)C1CC1)CC3)C2` (stereo not shown) [IND_CC-519, 2-Chloro-N-cyclopropyl-N-[6-[8-[(1-methyl-1H-pyrrol-2-yl)-methyl]-2,8-diazaspiro[4.5]decane-2-carbonyl]-2,3-dihydro-1H-inden-1-yl]-benzamide], the inhibition at 10 µM was 53%. Work on `O=C(NCc1ccc(Cl)c(Cl)c1)N1CCC2(CC1)CCN(C(=O)c1ccc3c(c1)C(N(C(=O)c1ccccc1Cl)C1CC1)CC3)C2` (stereo not shown) [IND_CC-721, 2-[3-[(2-Chloro-benzoyl)-cyclopropyl-amino]-2,3-dihydro-1H-indene-5-carbonyl]-N-[(3,4-dichlorophenyl)-methyl]-2,8-diazaspiro[4.5]decane-8-carboxylic acid amide] yielded an inhibition at 10 µM of 70%. For `CN(C(=O)CC(C)(C)C)C1CCc2ccc(C(=O)N3CCC4(CC3)CCN(c3ccncc3)CC4)cc21` (stereo not shown) [IND_CC-372, N,3,3-Trimethyl-N-[6-(9-pyridin-4-yl-3,9-diazaspiro[5.5]undecane-3-carbonyl)-2,3-dihydro-1H-inden-1-yl]-butyramide], the inhibition at 10 µM was 105%. `O=C(NC1CCc2ccc(C(=O)N3CCC4(CCN(Cc5ccccn5)CC4)CC3)cc21)c1ccccc1Cl` (stereo not shown) [IND_CC-509, 2-Chloro-N-[6-[9-(pyridin-2-yl-methyl)-3,9-diazaspiro[5.5]undecane-3-carbonyl]-2,3-dihydro-1H-inden-1-yl]-benzamide] gave an inhibition at 10 µM of 101%. `CN(C1CCc2ccc(C(=O)N3CCC4(CC3)CCN(c3ccncc3)CC4)cc21)S(=O)(=O)c1ccccc1Cl` (stereo not shown) [IND_CC-325, 2-Chloro-N-methyl-N-[6-(9-pyridin-4-yl-3,9-diazaspiro[5.5]undecane-3-carbonyl)-2,3-dihydro-1H-inden-1-yl]-benzenesulfonic acid amide] showed an inhibition at 10 µM of 102%. For `CCC(CC)CN1CCC2(CC1)CCN(C(=O)Cc1ccc3c(c1)C(NC(=O)c1ccccc1Cl)CC3)C2` (stereo not shown) [IND_CC-806, 2-Chloro-N-[6-[2-[8-(2-ethyl-butyl)-3,8-diazaspiro[4.5]decan-3-yl]-2-oxo-ethyl]-2,3-dihydro-1H-inden-1-yl]-benzamide], the inhibition at 10 µM was 75%. `CCC(CC)CN1CCC2(CC1)CCN(C(=O)c1ccc3c(c1)C(NC(=O)c1cccc(Cl)c1Cl)CC3)C2` (stereo not shown) [IND_CC-748, 2,3-Dichloro-N-[6-[8-(2-ethyl-butyl)-2,8-diazaspiro[4.5]decane-2-carbonyl]-2,3-dihydro-1H-inden-1-yl]-benzamide] gave an inhibition at 10 µM of 70%. `CCCNC(=O)N1CCC2(CC1)CCN(C(=O)c1ccc3c(c1)C(N(C(=O)c1ccccc1Cl)C1CC1)CC3)C2` (stereo not shown) [IND_CC-712, 2-[3-[(2-Chloro-benzoyl)-cyclopropyl-amino]-2,3-dihydro-1H-indene-5-carbonyl]-N-propyl-2,8-diazaspiro[4.5]decane-8-carboxylic acid amide] was tested, and the inhibition at 10 µM was 76%. Compound `COc1cc(C)c(C(=O)NC2CCc3ccc(C(=O)N4CCC5(CCN(C(=O)c6cc(C)nn6C(C)(C)C)CC5)C4)cc32)c(C)c1` (stereo not shown) [IND_CC-581, N-[6-[8-(2-tert-Butyl-5-methyl-2H-pyrazole-3-carbonyl)-2,8-diazaspiro[4.5]decane-2-carbonyl]-2,3-dihydro-1H-inden-1-yl]-4-methoxy-2,6-dimethyl-benzamide] has an inhibition at 10 µM of 67%. In the case of `CN(C1CCc2ccc(C(=O)N3CCC4(CC3)CCN(c3ccncc3)CC4)cc21)S(=O)(=O)c1c(Cl)cc(Cl)cc1Cl` (stereo not shown) [IND_CC-406, 2,4,6-Trichloro-N-methyl-N-[6-(9-pyridin-4-yl-3,9-diazaspiro[5.5]undecane-3-carbonyl)-2,3-dihydro-1H-inden-1-yl]-benzenesulfonic acid amide], the inhibition at 10 µM is reported as 102%. For `O=C(NC1CCc2ccc(C(=O)N3CCC4(CCN(Cc5c(F)cccc5Cl)CC4)C3)cc21)c1cccc(Cl)c1Cl` (stereo not shown) [IND_CC-725, 2,3-Dichloro-N-[6-[8-[(2-chloro-6-fluoro-phenyl)-methyl]-2,8-diazaspiro[4.5]decane-2-carbonyl]-2,3-dihydro-1H-inden-1-yl]-benzamide], the inhibition at 10 µM was 56%. Work on `O=C(c1ccc2c(c1)C(N(C(=O)c1ccccc1Cl)C1CC1)CC2)N1CCC2(CCN(C(=O)c3ccc(F)cc3Cl)CC2)C1` (stereo not shown) [IND_CC-605, 2-Chloro-N-[6-[8-(2-chloro-4-fluoro-benzoyl)-2,8-diazaspiro[4.5]decane-2-carbonyl]-2,3-dihydro-1H-inden-1-yl]-N-cyclopropyl-benzamide] yielded an inhibition at 10 µM of 66%. `Cc1c(CN2CCC3(CC2)CCN(C(=O)c2ccc4c(c2)C(NC(=O)c2ccccc2Cl)CC4)CC3)cnn1C` (stereo not shown) [IND_CC-531, 2-Chloro-N-[6-[9-[(1,5-dimethyl-1H-pyrazol-4-yl)-methyl]-3,9-diazaspiro[5.5]undecane-3-carbonyl]-2,3-dihydro-1H-inden-1-yl]-benzamide] was tested, and the inhibition at 10 µM was 81%. In the case of `O=C(NC1CCc2ccc(C(=O)N3CCC4(CCN(Cc5cc(F)ccc5F)CC4)C3)cc21)c1ccccc1Cl` (stereo not shown) [IND_CC-543, 2-Chloro-N-[6-[8-[(2,5-difluoro-phenyl)-methyl]-2,8-diazaspiro[4.5]decane-2-carbonyl]-2,3-dihydro-1H-inden-1-yl]-benzamide], the inhibition at 10 µM is reported as 102%.

Source: patent publication US8455475B2 (Gruenenthal GmbH, priority 2009, dated 2013)
